# Assay results taken from US7605175B2, “Inhibitors of cyclin-dependent kinases, compositions and uses related thereto” (GPC Biotech AG, priority 2001, dated 2009).
# Legend:
# [1] = test system: peripheral blood mononuclear cells (PBMCs); test: Cytotoxicity in PBMCs (MTS assay); format: cell-based, human; details: read-out: TC50: 50% cytoxicity (MTS)
# Protocol: (§1) The activity of the certain compounds of the invention was evaluated in peripheral blood mononuclear cells (PBMCs) infected with the low passage, clinical isolate HIV-1 ROJO to generate a measure of the efficacy of these compounds in acutely infected cells. The use of these normal human cells allows an estimate of the therapeutic index of these compounds to be made. Fresh PBMCs from two donors were pooled and stimulated with PHA-P for 48-72 hours. The cells were then cultured in the presence of IL-2 to maintain the cell division initiated by the mitogenic signal. The virus was added at a multiplicity of infection of 0.1. The cells were cultured for 7 days post infection prior to the evaluation of efficacy. Viral replication was measured by the level of reverse transcriptase activity in the supernatant and cytotoxicity was measured with the MTS assay.
# [2] = test system: HIV-1 ROJO; test: Antiviral activity in PBMCs infected with HIV-1 ROJO (reverse transcriptase); format: cell-based
# Protocol: as §1
# [3] = test system: HCT-116 cells; test: Calcein AM viability assay, HCT-116; format: cell-based; details: Homo sapiens
# Summary of the method: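 Cells plated (1,000 HCT-116 in RPMI-1640/10% FCS; 4,000 IMR90 in MEM-alpha/10% FCS), adhered overnight, then given 7 doses of compound at 0-250 nM for 72 h at 37 °C. Viability read by Calcein AM fluorescence (ex 485, em 530) after 75 min; IC50 derived.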
# [4] = test system: NCI panel of 60 cell lines; test: NCI panel of human tumor cell lines (SRB), Mean-Graph Mid-point; format: cell-based; details: read-out: NCI panel MG-MID (Mean-Graph Mid-point, average IC50 over the whole cell panel)
# Description: (§2) The evaluation of compounds at the National Cancer Institute in their panel of 60 cell lines provides a wealth of information regarding efficacy in a wide range of tumor types and genetic backgrounds. Included within this panel are cell lines derived from leukemia, melanoma and cancers of the lung, colon, brain, ovary, breast, prostate and kidney. Use of this panel provides a measure of the efficacy of compounds in cells with alterations in many genes that are associated with neoplastic transformation including p53 and Her2/Neu as well as those involved in metabolism and those which confer multi-drug resistance. The data generated in these cell lines with the protocol described below can be used to evaluate the activity of compounds.
# Cells were grown in RPMI-1640 10% FCS and plated in 96 well micro-titer plates at densities ranging from 5,000 to 40,000 cells/well. The plates were incubated for 24 hours at 37° C., 5% CO2 for 24 hours. Media containing twice the desired final concentration of the compound (5 doses spanning 4 logs) was prepared and 100 μl was added to each well containing 100 μl media plus cells to yield the desired final concentration. The plates were then incubated for an additional 48 hours.
# The effect of the compound on cellular viability was determined with the Sulforhodamine B (SRB) assay, which measures total protein. Cells were fixed with cold TCA to a final concentration of 10% and incubated at 4° C. for 60 minutes. The supernatant was discarded and the plates were washed five times with water and air-dried. SRB solution at […] in 1% acetic acid was added to each well and the plates were incubated for 10 minutes at room temperature. The plates were washed five times with 1% acetic acid and air-dried. The bound stain was solubilized with 10 mM trizma base and the absorbance was read on a plate reader at […].
# [5] = test system: adriamycin resistant cell line (ADR-res); test: NCI panel (SRB), adriamycin resistant cell line; format: cell-based; details: Homo sapiens
# Description: as §2
# Cells were grown in RPMI-1640 10% FCS and plated in 96 well micro-titer plates at densities ranging from 5,000 to 40,000 cells/well. The plates were incubated for 24 hours at 37° C., 5% CO2 for 24 hours. […]
# The effect of the compound on cellular viability was determined with the Sulforhodamine B (SRB) assay, which measures total protein. […] The bound stain was solubilized with 10 mM trizma base and the absorbance was read on a plate reader at […].
# [6] = test system: IMR90 cells; test: Calcein AM viability assay, IMR90; format: cell-based; details: Homo sapiens, IMR-90, 72 h, read-out: IMR90 viability IC50
# Protocol: The potency of Cdk inhibitors, as measured by loss of cellular viability, was determined with the Calcein AM assay (Molecular Probes). Calcein AM is a substrate of intracellular esterases, which is cleaved only in viable cells to generate a fluorescent product that can be quantified with a fluorescent plate reader. The fluorescent signal is proportional to the number of viable cells, and thus loss of signal in response to the exposure of cells to Cdk inhibitors correlates with a loss of viability. This assay can distinguish cell cycle arrest, in which cells may still by viable, from loss of viability and is thus well suited for the evaluation of Cdk inhibitors. A compound that is a potent cytotoxic, may cause significant loss of cell viability in such assay.
# Cellular IC50's were determined in the human colorectal carcinoma cell line, HCT-116, and the normal human fibroblast, IMR90. Protein adjusted IC50's were also determined in HCT-116.
# HCT-116 or IMR90 cells were recovered from sub-confluent plates by trypsinization and 1,000 or 4,000 cells, respectively, were plated in 24-well dishes and incubated overnight at 37° C., 5% CO2. […]
# A 5 μM Calcein AM solution was prepared by dissolving a […] aliquot of Calcein (Molecular Probes catalog # C3100) in 50 μl DMSO. […] (protected from light) and the fluorescent signal was read on a fluorescent plate reader (excitation 485/20 and emission 530/25).
# [7] = test system: arrested HCT-116 cells; test: Arrested cell assay, arrested HCT-116 tumor cells; format: cell-based; details: Homo sapiens, serum-starved arrested cells, 72 hours, read-out: Arrested cell assay HCT IC50
# Protocol: (§3) Cyclin-dependent kinase (Cdk) activity is required to promote the progression of cells through distinct phases of the cell division cycle. The proliferation of normal, non-transformed, cells in culture requires the presence of growth factors, the removal of which, through serum deprivation, leads to a loss of Cdk activity and consequent exit from the cell cycle as cells enter the quiescent phase, G0.
# HCT-116 cells were plated in triplicate for each compound concentration to be tested in RPMI 1640 media containing 10% fetal calf serum at a density of either 200 or 2,000 cells per well in 24 well dishes, and incubated overnight at 37° C., 5% CO2. The media from the plate containing 2,000 cells per well was removed, cells were washed once with serum free media and 1 ml of serum free media was placed on cells. The plates containing cells both in the presence and absence of serum were incubated for 6 additional days.
# (§4) The cells are incubated in the presence of the compounds for 72 hours (3 days) at 37° C. […] Cycling and arrested HCT-116 cells as well as cycling IMR90 cells were exposed to a panel of 6 doses ranging from 5 to 250 nM. For arrested normal cells, the range of doses was increased to 50 nM to 25 μM, to compensate for the expected decrease in activity.
# (§5) The effect of 72 hours of compound exposure on cellular viability was assessed in the Calcein AM assay. Calcein AM is a fluorescent substrate of intracellular esterases that are only active in viable cells. Cleavage of the substrate thus provides a measure of viability, which is proportional to cell number.
# (§6) A Calcein AM stock solution was prepared by dissolving a 50 μg aliquot (Molecular Probes catalogue # C3100) in 50 μl DMSO. The tube was incubated at room temperature for approximately 10 minutes to ensure that the Calcein had dissolved completely. The calcein was diluted into 10 ml PBS to prepare the final solution, which was protected from light.
# (§7) The media was aspirated off the cells, which were then washed twice with 1 ml PBS to remove the PBS completely from cells by aspiration. 0.5 ml of the Calcein/PBS solution was transferred by pipette into each well. The plates were incubated at 37° C. for 75 minutes (protected from light) and read on a fluorescent plate reader (excitation 485/20 and emission 530/25).
# [8] = target: protein kinase C (mixed isozymes); test: Protein kinase C TCA precipitation assay; format: biochemical, rat; details: Table 5; read-out: PKC IC50
# Protocol: Enzymes: Cdc2/cyclin B was obtained from commercial sources. Cdk2/his-cyclin Eshort was expressed in Sf9 cells. Cdk2/cyclin A, cdk4/cyclin D1, and cdk6/cyclin D2 were expressed in Sf9 cells. Protein kinase A (catalytic subunit, from bovine heart) and protein kinase C (mixed isozymes from rat brain) were obtained from commercial sources.
# Protein kinase C and protein kinase A were assayed using a TCA precipitation assay with Histone H1 as a substrate. For protein kinase A, the final assay contained 50 mM Tris, 10 mM MgCl2, 1 mM dithiothreitol, pH 7.5, 12 μM adenosine triphosphate, 10% (v/v) dimethylsulfoxide (from compounds), 20 μg Histone H1, 2 μCi [γ-^32P] adenosine triphosphate, 0.2 U protein kinase A in a 100 μL assay. A protein kinase C assay contained 50 mM Tris, 10 mM MgCl2, 1 mM dithiothreitol, 0.8 mM CaCl2, pH 7.5, 5 μM adenosine triphosphate, 10% (v/v) dimethylsulfoxide (from compounds), 20 μg Histone H1, 2 μCi [γ-^32P] adenosine triphosphate, 0.01 U protein kinase C in a 50 μL assay. The assays were started by the addition of enzyme, allowed to react for 10 min at 30° C., and stopped by adding 0.4 volumes of 237 mM disodium ethylenediamine tetraacetate, 105 mM adenosine triphosphate, pH 8.0. […] The filters were washed ten times with 25% (w/v) trichloroacetic acid, and the amount of incorporated [^32P]phosphate was determined by adding 100 μl Microscint and scintillation counting.
# [9] = test system: arrested IMR90 cells; test: Arrested cell assay, arrested IMR90 normal cells; format: cell-based; details: Homo sapiens, IMR-90; serum-starved arrested cells, 72 hours; read-out: Arrested cell assay IMR90 IC50
# Protocol: as §3
# IMR90 cells were plated in triplicate for each compound concentration to be tested in MEM-A media containing 10% fetal calf serum at a density of either 2,000 or 20,000 cells per well in 24-well dishes and incubated overnight at 37° C., 5% CO2. The media was removed from the 20,000 cell-per-well dish, cells were washed once with serum-free media, and serum-free media was placed on cells. The plates containing cells both in the presence and absence of serum were incubated for 3 additional days.
# as §4, §5, §6, §7
# [10] = test system: HCT-116 cells; test: BrdU incorporation assay; format: cell-based; details: Homo sapiens, read-out: Brd U, concentration that inhibits BrdU incorporation by 50%
# Protocol: This method measured the percentage of cells that incorporated the nucleotide analog, BrdU, into newly synthesized DNA as cells progressed through the S phase of the cell cycle. The inhibition of BrdU incorporation was used as a measure of a Cdk inhibitor's effect on S phase progression and DNA replication.
# 3 sets of HCT-116 cells (100,000 cells/set) were plated in T25 flasks and incubated with a test compound as above. Analysis was done at 24, 48, and 72 hours. BrdU was added to each T-25 flask from a stock of 10 mg/ml to a final concentration of 10 μM and the cells were incubated for an additional 16-18 hours at 37° C. The cells were then prepared for flow cytometric analysis according to manufacturer's protocol (BrdU Flow kit, BD-Pharmingen catalogue #2354KK) as follows:
# Cells were harvested (adherent and floating) from the T25 flasks directly into Falcon 12×75 flow cytometric tubes as above followed by fixation and permeabilization with the addition of 100 μl of Cytofix/Cytoperm buffer (30 minutes, room temperature). The cells were then washed with 1 ml of Perm Wash buffer and the cell pellets were resuspended in 100 μl Cytoperm Plus buffer and incubated on ice for 10 minutes. The cells were then washed again with 1 ml of Perm Wash buffer and the fixation was repeated in 100 μl of Cytofix/Cyto Perm buffer for 10 minutes at room temperature. The cells were then washed with 1 ml of Perm Wash buffer. The cells were next treated for one hour at 37° C. with 100 μl DNase to expose incorporated BrdU followed by another wash step with 1 ml of Perm Wash buffer. […] Cells were protected from light and incubated at room temperature for 20-30 minutes. Following the incubation, the cells were washed with 1 ml of Perm Wash buffer, resuspended in 300 μl of 2% FBS in PBS, and analyzed on the flow cytometer. Results are presented in Table 2 as the concentration of compound (μM) that inhibits of BrdU incorporation by 50%.
# [11] = HCT-116, 72 h, read-out: HCT-116 IC50 Viability
smiles,measurement,setting,value
"Cc1cn([C@H]2C[C@H](N=[N+]=[N-])[C@@H](CO)O2)c(=O)[nH]c1=O [AZT, reference compound]",CC50,[1],> 1000 nM
same,TI: TC50/IC50,[2],>100
same,IC50,"[2]; read-out: IC50: 50% inhibition of virus replication measured by reverse transcriptase levels in the supernatant, HIV-1 ROJO, 7 days post infection",< 10 nM
CC(C)c1nn(-c2c(Cl)cc(Cl)cc2Cl)c2nc(Cc3ccc(OCCN4CCOCC4)cc3)[nH]c(=O)c12 [A],IC50,"[3]; HCT-116, plus 1 mg/ml alpha acidic glycoprotein and 45 mg/ml human serum albumin, read-out: HCT-116 IC50 Protein adjusted",< 1000 nM
same,IC50,[4],< 100 nM
same,IC50,[5],< 1000 nM
CC(C)c1nn(-c2c(Cl)cccc2Cl)c2nc(Cc3ccc(OP(=O)(O)O)cc3)[nH]c(=O)c12 [Compound B],IC50,[3]; [11],< 1000 nM
same,IC50,[6],< 1000 nM
CC(C)N1CCN(CCOc2ccc(-c3[nH]nc4c3C(=O)c3c(NC(=O)NN5CCOCC5)cccc3-4)cc2)CC1 [E],IC50,[7],< 100 nM
same,IC50,[8],< 10000 nM
same,IC50,[9],> 100 nM
same,IC50,"[10]; HCT-116, 24 h",< 10 nM
same,IC50,"[10]; HCT-116, 48 h",< 100 nM
O=C(Nc1cccc2c1C(=O)c1c-2n[nH]c1-c1ccc(OP(=O)(O)O)cc1)NN1CCOCC1 [J],IC50,[3]; [11],< 1000 nM
same,IC50,[6],< 100 nM
